Measured values taken from ChEMBL document CHEMBL1909046, “DrugMatrix in vitro pharmacology data”.

Experiments:
[1] = molecular target: T1, Type-2 angiotensin II receptor (Homo sapiens, UniProt P50052); type: cell-based; conditions: cho-k1; note: in other assays of this panel Not Active means under 50% inhibition at 10 µM
T1 sequence (P50052 whole entry): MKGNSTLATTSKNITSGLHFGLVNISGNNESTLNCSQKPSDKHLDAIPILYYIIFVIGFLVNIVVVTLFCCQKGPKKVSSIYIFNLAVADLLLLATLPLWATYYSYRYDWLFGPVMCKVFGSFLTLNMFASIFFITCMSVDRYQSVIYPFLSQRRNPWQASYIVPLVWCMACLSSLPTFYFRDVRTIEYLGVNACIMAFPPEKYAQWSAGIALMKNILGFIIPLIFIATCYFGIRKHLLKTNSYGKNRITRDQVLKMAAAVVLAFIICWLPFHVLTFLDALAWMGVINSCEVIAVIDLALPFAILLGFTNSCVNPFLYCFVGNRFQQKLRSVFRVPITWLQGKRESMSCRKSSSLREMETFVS

[2] = DRUGMATRIX: beta-Lactamase enzyme inhibition (substrate: Nitrocefin); parameters: species or system Bacillus cereus; conditions: Not Active = under 50% inhibition at 10 µM
[3] = molecular target: T2, Calcitonin receptor (Homo sapiens, UniProt P30988); type: cell membranes, Membrane; conditions: t47d; note: in other assays of this panel Not Active means under 50% inhibition at 10 µM
T2 sequence (P30988 whole entry): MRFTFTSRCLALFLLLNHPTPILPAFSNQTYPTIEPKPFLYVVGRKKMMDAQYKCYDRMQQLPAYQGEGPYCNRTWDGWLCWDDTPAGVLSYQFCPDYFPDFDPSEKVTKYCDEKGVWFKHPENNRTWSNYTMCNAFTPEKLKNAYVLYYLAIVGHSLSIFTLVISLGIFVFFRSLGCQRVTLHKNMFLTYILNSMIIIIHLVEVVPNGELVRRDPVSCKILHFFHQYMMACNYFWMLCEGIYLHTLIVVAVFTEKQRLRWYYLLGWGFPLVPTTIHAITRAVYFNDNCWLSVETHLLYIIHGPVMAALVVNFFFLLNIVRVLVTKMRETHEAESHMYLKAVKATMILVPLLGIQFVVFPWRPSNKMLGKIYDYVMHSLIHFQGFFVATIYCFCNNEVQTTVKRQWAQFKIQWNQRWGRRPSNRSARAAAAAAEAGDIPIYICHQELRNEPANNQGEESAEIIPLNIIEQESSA

[4] = molecular target: Vascular endothelial growth factor receptor 1 (Homo sapiens, UniProt P17948); type: cell-based; conditions: huvec; note: in other assays of this panel Not Active means under 50% inhibition at 10 µM
Vascular endothelial growth factor receptor 1, sequence (P17948 whole entry): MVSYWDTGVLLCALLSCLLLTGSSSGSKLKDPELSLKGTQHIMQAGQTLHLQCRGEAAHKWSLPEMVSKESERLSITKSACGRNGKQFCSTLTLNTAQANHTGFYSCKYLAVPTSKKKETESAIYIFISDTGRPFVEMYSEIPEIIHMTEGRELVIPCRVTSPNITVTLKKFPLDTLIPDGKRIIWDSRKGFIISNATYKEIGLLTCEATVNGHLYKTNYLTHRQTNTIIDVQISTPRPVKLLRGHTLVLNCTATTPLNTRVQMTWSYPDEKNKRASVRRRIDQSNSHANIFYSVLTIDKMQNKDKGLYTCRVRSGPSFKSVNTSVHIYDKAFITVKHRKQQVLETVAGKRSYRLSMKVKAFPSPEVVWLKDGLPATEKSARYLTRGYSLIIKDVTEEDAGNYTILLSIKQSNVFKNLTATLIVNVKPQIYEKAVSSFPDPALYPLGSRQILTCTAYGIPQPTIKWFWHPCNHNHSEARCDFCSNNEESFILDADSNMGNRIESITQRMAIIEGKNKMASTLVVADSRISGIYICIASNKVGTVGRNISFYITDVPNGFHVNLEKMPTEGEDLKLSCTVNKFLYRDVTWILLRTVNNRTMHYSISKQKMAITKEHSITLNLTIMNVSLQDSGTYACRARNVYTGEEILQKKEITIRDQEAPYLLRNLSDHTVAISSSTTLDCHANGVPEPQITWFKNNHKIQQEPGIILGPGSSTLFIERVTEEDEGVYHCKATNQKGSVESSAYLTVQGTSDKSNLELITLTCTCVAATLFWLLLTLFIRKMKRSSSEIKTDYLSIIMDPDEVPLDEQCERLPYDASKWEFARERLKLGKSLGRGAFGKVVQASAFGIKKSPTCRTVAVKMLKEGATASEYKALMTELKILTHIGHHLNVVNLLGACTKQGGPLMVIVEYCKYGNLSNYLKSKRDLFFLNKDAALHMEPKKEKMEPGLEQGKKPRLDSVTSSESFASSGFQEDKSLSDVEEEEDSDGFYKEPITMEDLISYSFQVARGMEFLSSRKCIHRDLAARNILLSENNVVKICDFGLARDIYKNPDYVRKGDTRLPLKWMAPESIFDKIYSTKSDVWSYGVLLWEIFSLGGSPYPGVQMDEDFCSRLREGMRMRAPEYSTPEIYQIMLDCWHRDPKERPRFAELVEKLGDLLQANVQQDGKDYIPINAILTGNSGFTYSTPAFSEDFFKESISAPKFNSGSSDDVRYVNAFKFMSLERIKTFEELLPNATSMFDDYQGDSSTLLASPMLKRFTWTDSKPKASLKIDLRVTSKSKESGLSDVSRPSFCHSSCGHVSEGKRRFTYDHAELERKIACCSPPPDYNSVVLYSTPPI

[5] = molecular target: C-C chemokine receptor type 2 (Homo sapiens, UniProt P41597); type: cell membranes, CHO-K1, Membrane; conditions: cho-k1; note: in other assays of this panel Not Active means under 50% inhibition at 10 µM
C-C chemokine receptor type 2, sequence (P41597 whole entry): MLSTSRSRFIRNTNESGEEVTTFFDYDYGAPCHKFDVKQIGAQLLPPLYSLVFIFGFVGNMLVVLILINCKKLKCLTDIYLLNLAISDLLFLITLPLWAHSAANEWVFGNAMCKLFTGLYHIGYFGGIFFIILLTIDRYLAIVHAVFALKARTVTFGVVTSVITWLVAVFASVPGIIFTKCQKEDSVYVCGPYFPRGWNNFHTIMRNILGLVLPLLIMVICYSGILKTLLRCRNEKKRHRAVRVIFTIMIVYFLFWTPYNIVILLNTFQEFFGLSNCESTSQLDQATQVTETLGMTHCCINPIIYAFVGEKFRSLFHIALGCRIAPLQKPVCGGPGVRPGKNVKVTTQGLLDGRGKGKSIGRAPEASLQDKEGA

[6] = molecular target: T3, D(4) dopamine receptor (Homo sapiens, UniProt P21917); assay: DRUGMATRIX: Dopamine D4.2 radioligand binding (ligand: [3H] Spiperone); type: cell membranes, CHO-K1, Membrane; conditions: cho-k1; Not Active = under 50% inhibition at 10 µM
T3 sequence (P21917 whole entry): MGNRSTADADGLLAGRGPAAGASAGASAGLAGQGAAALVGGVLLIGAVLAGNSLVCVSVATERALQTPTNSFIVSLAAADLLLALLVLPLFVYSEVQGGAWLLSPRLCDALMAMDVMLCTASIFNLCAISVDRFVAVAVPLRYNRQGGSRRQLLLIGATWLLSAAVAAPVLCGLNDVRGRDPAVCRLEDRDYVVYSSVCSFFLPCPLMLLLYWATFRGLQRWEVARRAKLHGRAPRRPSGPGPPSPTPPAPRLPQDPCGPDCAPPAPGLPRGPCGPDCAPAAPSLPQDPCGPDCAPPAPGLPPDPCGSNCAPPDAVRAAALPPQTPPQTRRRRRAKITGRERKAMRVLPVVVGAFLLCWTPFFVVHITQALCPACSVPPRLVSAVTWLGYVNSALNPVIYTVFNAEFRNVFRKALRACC

[7] = molecular target: Sodium-dependent dopamine transporter (Homo sapiens, UniProt Q01959); assay: DRUGMATRIX: Dopamine Transporter radioligand binding (ligand: [125I] RTI-55); type: cell membranes, CHO-K1, Membrane; conditions: cho-k1; Not Active = under 50% inhibition at 10 µM
Sodium-dependent dopamine transporter, sequence (Q01959 whole entry): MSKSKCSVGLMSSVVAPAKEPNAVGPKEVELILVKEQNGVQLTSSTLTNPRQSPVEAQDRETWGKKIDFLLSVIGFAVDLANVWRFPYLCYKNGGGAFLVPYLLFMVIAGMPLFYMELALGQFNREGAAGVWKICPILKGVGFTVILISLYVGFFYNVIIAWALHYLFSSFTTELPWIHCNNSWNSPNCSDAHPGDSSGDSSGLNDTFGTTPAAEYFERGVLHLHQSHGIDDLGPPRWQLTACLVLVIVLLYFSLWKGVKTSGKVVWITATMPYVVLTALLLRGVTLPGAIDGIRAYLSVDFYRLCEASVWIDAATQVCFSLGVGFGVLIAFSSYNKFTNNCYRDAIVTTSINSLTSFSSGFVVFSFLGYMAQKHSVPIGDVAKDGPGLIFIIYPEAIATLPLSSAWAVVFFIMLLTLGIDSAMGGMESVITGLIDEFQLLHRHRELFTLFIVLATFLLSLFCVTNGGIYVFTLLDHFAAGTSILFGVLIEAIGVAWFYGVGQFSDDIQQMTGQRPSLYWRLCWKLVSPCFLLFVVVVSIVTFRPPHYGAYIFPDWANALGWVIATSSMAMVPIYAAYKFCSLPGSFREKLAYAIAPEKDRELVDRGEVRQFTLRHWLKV

[8] = DRUGMATRIX: GABAA, Muscimol, Central radioligand binding (ligand: [3H] Muscimol); type: cell membranes, Rattus norvegicus, Wistar, Brain, Membrane; conditions: Not Active = under 50% inhibition at 10 µM
[9] = DRUGMATRIX: Glutamate, AMPA radioligand binding (ligand: [3H] AMPA); type: cell membranes, Rattus norvegicus, Wistar, Cerebral cortex, Membrane; conditions: Not Active = under 50% inhibition at 10 µM
[10] = molecular target: Cytochrome P450 2E1 (Homo sapiens, UniProt P05181); conditions: bti-tn-5b1-4; note: in other assays of this panel Not Active means under 50% inhibition at 10 µM
Cytochrome P450 2E1, sequence (P05181 whole entry): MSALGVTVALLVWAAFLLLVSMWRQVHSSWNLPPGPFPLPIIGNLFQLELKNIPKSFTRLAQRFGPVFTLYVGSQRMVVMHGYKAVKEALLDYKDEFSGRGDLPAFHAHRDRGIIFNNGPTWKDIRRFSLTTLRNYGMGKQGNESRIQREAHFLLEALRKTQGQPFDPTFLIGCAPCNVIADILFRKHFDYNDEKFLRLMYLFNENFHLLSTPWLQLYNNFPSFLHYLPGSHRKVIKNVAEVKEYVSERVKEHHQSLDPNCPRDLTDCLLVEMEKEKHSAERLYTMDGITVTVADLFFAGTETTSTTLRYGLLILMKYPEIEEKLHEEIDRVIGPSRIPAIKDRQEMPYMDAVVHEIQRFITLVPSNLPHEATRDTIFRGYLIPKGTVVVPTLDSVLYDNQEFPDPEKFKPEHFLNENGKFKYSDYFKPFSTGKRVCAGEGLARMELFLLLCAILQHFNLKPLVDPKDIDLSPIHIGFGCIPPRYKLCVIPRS

CC1=Nc2ccc(Cl)cc2S(=O)(=O)N1 [DIAZOXIDE]
Not Active: IC50 [1] | IC50 [2] | Ki [2] | IC50 [3] | IC50 [4] | IC50 [5] | IC50 [6] | IC50 [7] | IC50 [8] | Ki [8] | IC50 [9] | Ki [9] | IC50 [10] | Ki [10]

CC(=O)OCC(=O)[C@@]1(OC(C)=O)[C@@H](C)C[C@H]2[C@@H]3C[C@H](F)C4=CC(=O)C=C[C@]4(C)[C@@]3(F)[C@@H](O)C[C@@]21C [DIFLORASONE DIACETATE]
Not Active: IC50 [1] | IC50 [2] | Ki [2] | IC50 [3] | IC50 [4] | IC50 [5] | IC50 [6] | IC50 [7] | IC50 [8] | Ki [8] | IC50 [9] | Ki [9] | IC50 [10] | Ki [10]

COc1ccc([C@@H]2Sc3ccccc3N(CCN(C)C)C(=O)[C@@H]2OC(C)=O)cc1 [DILTIAZEM]
Not Active: IC50 [1] | IC50 [2] | Ki [2] | IC50 [3] | IC50 [4] | IC50 [5] | IC50 [6] | IC50 [7] | IC50 [8] | Ki [8] | IC50 [9] | Ki [9] | IC50 [10] | Ki [10]

CCc1ccc(C(=O)C(C)CN2CCCCC2)cc1 (configuration not stated) [EPERISONE]
Not Active: IC50 [1] | IC50 [2] | Ki [2] | IC50 [3] | IC50 [4] | IC50 [5] | IC50 [6] | IC50 [7] | IC50 [8] | Ki [8] | IC50 [9] | Ki [9] | IC50 [10] | Ki [10]

C=C1CC[C@H](O)C/C1=C/C=C1\CCC[C@]2(C)[C@@H]([C@H](C)/C=C/[C@H](C)C(C)C)CC[C@@H]12 [ERGOCALCIFEROL]
Not Active: IC50 [1] | IC50 [2] | Ki [2] | IC50 [3] | IC50 [4] | IC50 [5] | IC50 [6] | IC50 [7] | IC50 [8] | Ki [8] | IC50 [9] | Ki [9] | IC50 [10] | Ki [10]

CN1C[C@H](C(=O)N[C@]2(C)O[C@@]3(O)[C@@H]4CCCN4C(=O)[C@H](Cc4ccccc4)N3C2=O)C=C2c3cccc4[nH]cc(c34)C[C@H]21 [ERGOTAMINE]
Not Active: IC50 [1] | IC50 [2] | Ki [2] | IC50 [3] | IC50 [4] | IC50 [5] | IC50 [6] | IC50 [7] | IC50 [8] | Ki [8] | IC50 [9] | Ki [9] | IC50 [10] | Ki [10]

CCc1cccc2c3c([nH]c12)C(CC)(CC(=O)O)OCC3 (configuration not stated) [ETODOLAC]
Not Active: IC50 [1] | IC50 [2] | Ki [2] | IC50 [3] | IC50 [4] | IC50 [5] | IC50 [6] | IC50 [7] | IC50 [8] | Ki [8] | IC50 [9] | Ki [9] | IC50 [10] | Ki [10]

Cc1c(-c2ccccc2)oc2c(C(=O)OCCN3CCCCC3)cccc2c1=O [FLAVOXATE]
Not Active: IC50 [1] | IC50 [2] | Ki [2] | IC50 [3] | IC50 [4] | IC50 [5] | IC50 [6] | IC50 [7] | IC50 [8] | Ki [8] | IC50 [9] | Ki [9] | IC50 [10] | Ki [10]

Nc1nc(=O)[nH]cc1F [FLUCYTOSINE]
Not Active: IC50 [1] | IC50 [2] | Ki [2] | IC50 [3] | IC50 [4] | IC50 [5] | IC50 [6] | IC50 [7] | IC50 [8] | Ki [8] | IC50 [9] | Ki [9] | IC50 [10] | Ki [10]

O=C1OC2(c3ccc(O)cc3Oc3cc(O)ccc32)c2ccccc21 [FLUORESCEIN]
Not Active: IC50 [1] | IC50 [2] | Ki [2] | IC50 [3] | IC50 [4] | IC50 [5] | IC50 [6] | IC50 [7] | IC50 [8] | Ki [8] | IC50 [9] | Ki [9] | IC50 [10] | Ki [10]

CC(=O)[C@@]1(O)CC[C@H]2[C@@H]3C[C@H](C)C4=CC(=O)C=C[C@]4(C)[C@@]3(F)[C@@H](O)C[C@@]21C [FLUOROMETHOLONE]
Not Active: IC50 [1] | IC50 [2] | Ki [2] | IC50 [3] | IC50 [4] | IC50 [5] | IC50 [6] | IC50 [7] | IC50 [8] | Ki [8] | IC50 [9] | Ki [9] | IC50 [10] | Ki [10]

O=c1[nH]cc(F)c(=O)[nH]1 [FLUOROURACIL]
Not Active: IC50 [1] | IC50 [2] | Ki [2] | IC50 [3] | IC50 [4] | IC50 [5] | IC50 [6] | IC50 [7] | IC50 [8] | Ki [8] | IC50 [9] | Ki [9] | IC50 [10] | Ki [10]

CC(C)n1c(/C=C/C(O)CC(O)CC(=O)O)c(-c2ccc(F)cc2)c2ccccc21 (configuration not stated) [FLUVASTATIN]
Not Active: IC50 [1] | IC50 [2] | Ki [2] | IC50 [3] | IC50 [4] | IC50 [5] | IC50 [6] | IC50 [7] | IC50 [8] | Ki [8] | IC50 [9] | Ki [9] | IC50 [10] | Ki [10]
